Results as given in patent US12622906B2, “Treatment and prognosis of pancreatic cancer” (Cambridge Enterprise Limited, priority 2019, dated 2026).

Assays:
CCR1 expression = CCR1 expression in PDAC cells after prolonged co-culture with BMDM (qRT-PCR, flow cytometry); assay type: cell-based, murine; settings: PDAC cells co-cultured with BMDM; by qRT-PCR and flow cytometry
Description: Culture conditions for PDAC and BMDM cell lines used in this study are described above. For co-cultures, mCherry-labelled PDAC cells were mixed 1:1 with ZsGreen-labelled macrophages, typically primary BMDM unless otherwise noted. Co-cultures were seeded and kept as subconfluent cultures for 48-96 hours in either 2D or 3D conditions.
Total RNA was isolated and purified from cells using Qiazol reagent and miRNeasy mini kit (Qiagen). cDNA was synthesized using the High Capacity RNA-to-cDNA kit (ABI) according to manufacturer's instructions. qRT-PCR was performed using Power SYBR Green PCR Master Mix (ABI) on the TaqMan 7900 (ABI). Relative expression levels were defined using the ΔΔCt method and normalizing to 18S rRNA and/or GAPDH.
Pre-treatment: PDAC cells and BMDM were pre-treated with CCR1 antagonists 24 hours prior to the start of the experiment, harvested and then seeded according to the co-culture method previously described for the duration of the experiment.
Treatment at time of co-culture: PDAC cells and BMDM were seeded according to the co-culture method as previously described and CCR1 antagonists were treated at the time of seeding and allowed to incubate for the duration of the experiment. […]

PDAC cells = assay: 3D in vitro assay of invasion, PDAC cells co-cultured with BMDM (IncuCyte Zoom, NeuroTrack); assay type: cell-based, murine; settings: 3D co-culture of PDAC cells with BMDM; pre-treatment 24 hours or treatment at time of co-culture
Description: Cell-matrix cultures were performed by seeding PDAC cells onto wells pre-coated with 1 mg/mL Matrix Growth Factor Reduced Matrigel (Becton Dickinson). To observe cell invasion through Matrigel, plates were placed into IncuCyte Zoom (Essen Bioscience) with the software set to capture images every 3 hours in green and fluorescent protein (GFP/RFP)/Bright Field (or Phase Contrast).
For co-cultures, mCherry-labelled PDAC cells were mixed 1:1 with ZsGreen-labelled macrophages, typically primary BMDM unless otherwise noted. Co-cultures were seeded and kept as subconfluent cultures for 48-96 hours in either 2D or 3D conditions.
To quantify the invasive capacity of PDAC cells, 3D in vitro invasion assays were quantified using software provided by Essen Bioscience, NeuroTrack. […] Unlike high-content imaging systems, which require fixation, staining, and endpoint analysis of cells, the algorithm measured live-cell dynamics. […] Once parameters were defined, they were applied to all 3D in vitro invasion assays for quantification.
The NeuroTrack software measures fluorescent-labelled cells. […] In this method, only PDAC cells that have invaded out of 3D structures are counted if they have a fluorescent mCherry label present in their nucleus. Data is plotted with number of nuclei counted on the y-axis and time on the x-axis. […]

[1] = tested on: fibroblasts and macrophages; assay: Viability of non-cancerous cells treated with CCR1 antagonist; assay type: cell-based; settings: compared with vehicle control

SMILES	induction of CCR1 expression due to prolonged co-culture (CCR1 expression)	macrophage-mediated pro-invasive phenotype of PDAC cells (PDAC cells)	viability of fibroblasts and macrophages [1]
CC[N@+]1(C/C2=C/CCCCCC2)CC[C@@H](NC(=O)C2c3cc(Cl)ccc3Oc3ccc(Cl)cc32)CC1.[I-] [J113863, 1,4-cis-1-(1-cycloocten-1-ylmethyl)-4-[[(2,7-dichloro-9H-xanthen-9-yl)carbonyl]amino]-1-ethylpiperidinium iodide]	blunting the induction of CCR1 expression	striking ability to rein in the effect of macrophages to confer functional pro-invasive abilities to PDAC cells	–
C[C@@H]1CN(Cc2ccc(F)cc2)CCN1C(=O)COc1ccc(Cl)cc1NC(N)=O [BX-471, (2R)-1-[[2-[(Aminocarbonyl)amino]-4-chlorophenoxy]acetyl]-4-[(4-fluorophenyl)methyl]-2-methylpiperazine]	–	striking ability to rein in the effect of macrophages to confer functional pro-invasive abilities to PDAC cells	just as viable as cell treated with vehicle control
